The record followed here is PMC7486443, “Generation of Phenothiazine with Potent Anti-TLK1 Activity for Prostate Cancer Therapy” (iScience, 2020).

Some targets named below: FLT3 (Homo sapiens, UniProt P36888); PDGFRB (Homo sapiens, UniProt P09619); FLT3(ITD,F691L) (Homo sapiens, UniProt P36888, F691L/ITD); MARK2 (Homo sapiens, UniProt Q7KZI7); TLK2 (Homo sapiens, UniProt Q86UE8); KIT(D816H) (Homo sapiens, UniProt P10721, D816H); CAMK1 (Homo sapiens, UniProt Q14012); PRKG1 (Homo sapiens, UniProt Q13976); MAP3K1 (Homo sapiens, UniProt Q13233); DMPK (Homo sapiens, UniProt Q09013); PRKX (Homo sapiens, UniProt P51817); RAF1 (Homo sapiens, UniProt P04049); ZAP70 (Homo sapiens, UniProt P43403).

Holding throughout (assay): biochemical
Holding throughout (design): DiscoverX KINOMEscan scanMAX competition binding panel, single concentration, percent of control; remaining binding: dose or concentration left out as unconfirmed
Holding throughout (settings): KINOMEscan binding, percent of control; read-out: Table S4_SCANMAX REPORT - related to Fig. 1 / Percent Control

Another test addresses T1, CDC2L2 (Homo sapiens, UniProt Q9UQ88).
T1 construct: gene CDK11A

The target in test [1] is T2, RSK2(Kin.Dom.1-N-terminal) (Homo sapiens, UniProt P51812).
T2 construct: gene RPS6KA3; Kin.Dom.1-N-terminal

The target of a further test is T3, MEK2 (Homo sapiens, UniProt P36507).
T3 construct: gene MAP2K2
T3 sequence (P36507 whole entry): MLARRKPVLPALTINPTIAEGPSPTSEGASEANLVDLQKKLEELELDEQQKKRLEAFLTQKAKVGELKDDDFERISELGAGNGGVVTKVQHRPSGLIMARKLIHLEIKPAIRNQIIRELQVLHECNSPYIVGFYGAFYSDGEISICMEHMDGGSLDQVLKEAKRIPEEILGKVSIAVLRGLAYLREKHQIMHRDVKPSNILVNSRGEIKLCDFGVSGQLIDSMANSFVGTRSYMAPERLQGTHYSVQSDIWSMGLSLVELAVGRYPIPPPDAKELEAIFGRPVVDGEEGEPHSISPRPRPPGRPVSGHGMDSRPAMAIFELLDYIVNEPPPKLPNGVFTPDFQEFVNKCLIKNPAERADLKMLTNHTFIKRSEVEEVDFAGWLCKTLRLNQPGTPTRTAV

The next test concerns the target T4, MEK3 (Homo sapiens, UniProt P46734).
T4 construct: gene MAP2K3

For a further test, the target named is T5, JNK3 (Homo sapiens, UniProt P53779).
T5 construct: gene MAPK10

PRKG1, sequence (Q13976 whole entry): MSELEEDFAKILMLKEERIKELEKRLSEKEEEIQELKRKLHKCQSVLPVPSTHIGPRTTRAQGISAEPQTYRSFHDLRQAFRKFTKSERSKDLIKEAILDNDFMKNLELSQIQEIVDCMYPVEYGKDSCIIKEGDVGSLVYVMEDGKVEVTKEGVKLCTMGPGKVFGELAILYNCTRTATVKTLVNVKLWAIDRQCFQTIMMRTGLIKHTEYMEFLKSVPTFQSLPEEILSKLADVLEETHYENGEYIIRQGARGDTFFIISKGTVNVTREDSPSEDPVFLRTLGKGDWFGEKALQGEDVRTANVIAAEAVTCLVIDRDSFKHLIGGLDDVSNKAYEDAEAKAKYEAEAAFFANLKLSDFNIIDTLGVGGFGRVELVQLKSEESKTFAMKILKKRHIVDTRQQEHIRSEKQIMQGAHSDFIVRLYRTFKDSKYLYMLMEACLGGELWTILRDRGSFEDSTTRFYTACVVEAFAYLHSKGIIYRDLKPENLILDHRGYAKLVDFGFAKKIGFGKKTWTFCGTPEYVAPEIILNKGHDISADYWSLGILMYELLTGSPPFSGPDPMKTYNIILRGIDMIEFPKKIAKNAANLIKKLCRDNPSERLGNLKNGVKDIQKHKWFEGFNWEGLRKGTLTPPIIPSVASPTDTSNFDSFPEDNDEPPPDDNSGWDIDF
PRKX, sequence (P51817 whole entry): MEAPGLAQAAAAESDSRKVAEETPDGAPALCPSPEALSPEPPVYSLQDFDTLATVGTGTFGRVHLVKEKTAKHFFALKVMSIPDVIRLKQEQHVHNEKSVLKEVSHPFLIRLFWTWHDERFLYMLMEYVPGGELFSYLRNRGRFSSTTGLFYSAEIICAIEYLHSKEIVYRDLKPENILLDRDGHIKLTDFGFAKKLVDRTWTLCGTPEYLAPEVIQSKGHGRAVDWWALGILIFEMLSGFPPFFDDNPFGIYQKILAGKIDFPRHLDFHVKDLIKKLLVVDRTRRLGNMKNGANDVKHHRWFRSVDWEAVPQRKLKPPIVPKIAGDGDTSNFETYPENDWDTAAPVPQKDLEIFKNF
T4 sequence (P46734 whole entry): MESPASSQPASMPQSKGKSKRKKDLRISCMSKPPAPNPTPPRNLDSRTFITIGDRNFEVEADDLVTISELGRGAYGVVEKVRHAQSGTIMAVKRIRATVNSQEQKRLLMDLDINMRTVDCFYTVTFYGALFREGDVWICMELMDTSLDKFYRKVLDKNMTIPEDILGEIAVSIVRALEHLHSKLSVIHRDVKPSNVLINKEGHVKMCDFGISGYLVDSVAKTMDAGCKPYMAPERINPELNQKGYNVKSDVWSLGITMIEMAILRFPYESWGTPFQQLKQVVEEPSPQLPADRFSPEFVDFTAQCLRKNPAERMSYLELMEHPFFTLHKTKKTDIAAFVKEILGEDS
MAP3K1, sequence (Q13233 whole entry): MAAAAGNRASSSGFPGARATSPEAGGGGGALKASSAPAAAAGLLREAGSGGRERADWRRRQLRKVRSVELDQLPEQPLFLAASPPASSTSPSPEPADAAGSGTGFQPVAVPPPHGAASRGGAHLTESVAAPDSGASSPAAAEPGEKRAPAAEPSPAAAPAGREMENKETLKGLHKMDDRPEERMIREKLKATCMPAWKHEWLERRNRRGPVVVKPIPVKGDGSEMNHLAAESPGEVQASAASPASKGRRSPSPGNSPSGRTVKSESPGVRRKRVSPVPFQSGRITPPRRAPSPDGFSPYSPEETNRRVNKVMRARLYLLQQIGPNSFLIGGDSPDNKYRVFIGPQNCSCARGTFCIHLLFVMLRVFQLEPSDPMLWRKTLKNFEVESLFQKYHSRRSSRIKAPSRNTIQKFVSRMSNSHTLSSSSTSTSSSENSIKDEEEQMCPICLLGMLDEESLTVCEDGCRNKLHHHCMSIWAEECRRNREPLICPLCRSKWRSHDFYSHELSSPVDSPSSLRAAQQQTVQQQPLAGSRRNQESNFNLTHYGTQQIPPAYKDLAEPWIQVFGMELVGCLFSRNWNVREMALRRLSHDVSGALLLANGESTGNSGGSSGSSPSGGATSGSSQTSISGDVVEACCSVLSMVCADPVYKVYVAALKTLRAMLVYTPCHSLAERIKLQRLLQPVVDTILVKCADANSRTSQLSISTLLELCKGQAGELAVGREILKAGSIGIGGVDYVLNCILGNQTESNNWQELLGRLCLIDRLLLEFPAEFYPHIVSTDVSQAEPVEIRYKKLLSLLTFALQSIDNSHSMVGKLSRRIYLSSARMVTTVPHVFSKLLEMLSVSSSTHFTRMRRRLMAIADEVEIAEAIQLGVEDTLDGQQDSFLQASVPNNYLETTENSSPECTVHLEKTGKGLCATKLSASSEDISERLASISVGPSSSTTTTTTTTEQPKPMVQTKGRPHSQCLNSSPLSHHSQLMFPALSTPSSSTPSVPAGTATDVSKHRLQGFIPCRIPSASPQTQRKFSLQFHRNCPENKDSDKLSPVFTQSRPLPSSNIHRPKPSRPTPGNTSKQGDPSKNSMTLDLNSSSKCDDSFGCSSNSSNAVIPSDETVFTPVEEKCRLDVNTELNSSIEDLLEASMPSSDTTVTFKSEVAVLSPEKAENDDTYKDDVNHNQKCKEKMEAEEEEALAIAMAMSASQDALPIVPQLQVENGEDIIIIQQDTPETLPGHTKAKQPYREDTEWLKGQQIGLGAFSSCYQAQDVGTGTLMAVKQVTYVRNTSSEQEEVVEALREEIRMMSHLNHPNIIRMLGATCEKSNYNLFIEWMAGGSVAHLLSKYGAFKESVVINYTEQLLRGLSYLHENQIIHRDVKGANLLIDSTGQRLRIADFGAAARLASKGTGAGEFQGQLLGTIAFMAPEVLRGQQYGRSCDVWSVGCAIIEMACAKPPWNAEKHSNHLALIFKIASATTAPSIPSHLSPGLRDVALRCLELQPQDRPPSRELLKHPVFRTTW
T1 sequence (Q9UQ88 whole entry): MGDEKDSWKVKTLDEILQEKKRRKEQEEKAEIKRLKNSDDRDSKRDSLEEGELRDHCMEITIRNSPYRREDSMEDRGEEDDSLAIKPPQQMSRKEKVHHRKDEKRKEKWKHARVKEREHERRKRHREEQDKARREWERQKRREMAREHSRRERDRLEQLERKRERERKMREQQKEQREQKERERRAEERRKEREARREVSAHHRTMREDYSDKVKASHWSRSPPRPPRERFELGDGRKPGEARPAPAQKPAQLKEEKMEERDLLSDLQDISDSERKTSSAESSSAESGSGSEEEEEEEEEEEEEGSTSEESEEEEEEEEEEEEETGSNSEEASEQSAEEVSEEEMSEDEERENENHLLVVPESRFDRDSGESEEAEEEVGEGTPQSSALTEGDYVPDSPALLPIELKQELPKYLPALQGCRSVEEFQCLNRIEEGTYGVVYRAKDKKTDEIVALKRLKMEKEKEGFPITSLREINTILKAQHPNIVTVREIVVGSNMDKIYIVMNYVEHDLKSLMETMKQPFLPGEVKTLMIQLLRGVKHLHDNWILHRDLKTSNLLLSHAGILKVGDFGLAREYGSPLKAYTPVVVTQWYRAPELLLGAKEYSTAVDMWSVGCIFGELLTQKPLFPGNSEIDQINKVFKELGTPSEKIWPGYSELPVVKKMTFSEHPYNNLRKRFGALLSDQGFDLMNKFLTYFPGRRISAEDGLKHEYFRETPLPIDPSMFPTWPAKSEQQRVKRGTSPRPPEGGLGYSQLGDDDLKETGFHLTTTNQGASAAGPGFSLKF
DMPK, sequence (Q09013 whole entry): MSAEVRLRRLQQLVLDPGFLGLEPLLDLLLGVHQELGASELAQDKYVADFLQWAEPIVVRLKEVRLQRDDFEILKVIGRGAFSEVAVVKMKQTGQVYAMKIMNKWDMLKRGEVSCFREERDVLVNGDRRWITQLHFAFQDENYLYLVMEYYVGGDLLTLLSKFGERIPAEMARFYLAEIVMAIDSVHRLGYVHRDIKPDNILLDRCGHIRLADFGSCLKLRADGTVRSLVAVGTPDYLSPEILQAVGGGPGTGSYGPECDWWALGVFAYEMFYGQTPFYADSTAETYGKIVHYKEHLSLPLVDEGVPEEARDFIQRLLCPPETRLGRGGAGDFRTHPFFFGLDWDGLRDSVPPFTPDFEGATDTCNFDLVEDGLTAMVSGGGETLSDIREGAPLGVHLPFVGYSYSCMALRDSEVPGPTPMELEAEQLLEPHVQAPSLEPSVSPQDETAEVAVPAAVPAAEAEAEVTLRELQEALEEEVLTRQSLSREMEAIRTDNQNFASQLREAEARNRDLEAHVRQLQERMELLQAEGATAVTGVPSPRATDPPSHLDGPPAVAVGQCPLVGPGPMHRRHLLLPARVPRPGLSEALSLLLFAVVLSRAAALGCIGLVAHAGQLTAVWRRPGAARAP

In the case of `c1ccc2c(c1)Sc1ccccc1N2CCN1CCOCC1` [J54], the remaining binding worked out at 100% on FLT3; 100% on PDGFRB; 100% at CDC2L2; 65% at FLT3(ITD,F691L); 99% on MARK2; 23% on TLK2. For the same molecule, the remaining binding at KIT(D816H) stood at 62%; at CAMK1, 97%; in test [1], 97%; on MEK2 it was 100%; on MEK3 it was 100%; at PRKG1, 86%. The remaining binding at MAP3K1 was found to be 100%; at DMPK it was 85%; at PRKX it was 91%; on JNK3, 93%; at RAF1 it was 100%; at ZAP70, 100%.
